# Measured values reported in publication PMC5430874 (Scientific Reports, 2017).
# Changes are numbered by the printed parent chain.
# Assays:
# Format in all cases: cell-based
# GPR139 H187A^5×43 = target: T1, GPR139 H187A^5×43 (Homo sapiens, UniProt Q6DWJ6, H187A); experiment: Fluo-4 Ca2+-assay, GPR139 mutant H187A; details: for EC50: H187A mutant (surface expression 36% of WT)
# T1 construct: mGluR5 signal peptide (N); expressed in transfected cells; host or cells: HEK293
# T1 sequence (Q6DWJ6 2-353 H187A limits assumed): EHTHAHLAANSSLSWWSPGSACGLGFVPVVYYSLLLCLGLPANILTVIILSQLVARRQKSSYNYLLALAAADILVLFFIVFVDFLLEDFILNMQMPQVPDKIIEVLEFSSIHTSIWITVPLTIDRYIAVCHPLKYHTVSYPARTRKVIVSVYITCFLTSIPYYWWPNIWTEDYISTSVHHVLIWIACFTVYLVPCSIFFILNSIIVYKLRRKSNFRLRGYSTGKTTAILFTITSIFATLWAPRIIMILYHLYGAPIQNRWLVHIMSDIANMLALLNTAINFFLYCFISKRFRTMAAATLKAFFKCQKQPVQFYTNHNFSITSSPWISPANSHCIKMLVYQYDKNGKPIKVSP
# Excerpt: (§1) To study the influence of specific amino acids in the predicted binding pocket on receptor function, the desired mutations were introduced into an N-terminally c-myc-tagged wild type human GPR139 (NM_001002911.3) in the pEGFP-N1 vector (BD Biosciences)[32], [33]. As previously described, these plasmids carry the signal peptide of mGluR5 to promote cell surface expression followed by a c-myc epitope to enable detection of total and surface expression by ELISA, followed by an engineered MluI and NotI site for easy insertion of the receptor of interest. Furthermore, the start-codon in the GPR139 sequence was deleted to ensure c-myc-tagging. Mutagenesis was designed in Serial Cloner 2.6 (© Franck Perez [SerialBasics]) and carried out by GenScript (USA). All mutated residues are illustrated in Supplementary Fig. 1b. An untagged GPR139(WT) in pEGFP-N1 was also generated to ensure that the c-myc-tag had no influence on GPR139(WT) function.
# All GPR139 mutants were transfected into HEK293 cells. The HEK293 cells were grown in Dulbecco’s modified Eagle’s medium (DMEM) (Gibco, 41965) supplemented with 10% dialyzed fetal bovine serum (Gibco, 26400, United States origin), 100 units/mL penicillin and 100 μg/mL streptomycin (Gibco, 15140). HEK293 cells were reverse transfected using Lipofectamine2000 (Invitrogen). More specifically two mixtures were made: 1) 10 ng DNA/well + 25 μL Opti-MEM/well and 2) […] Lipofectamine2000/well + 25 μL Opti-MEM/well. The two mixtures were mixed and 50 μL/well was added directly in black 96-well plates with flat clear bottoms for the Fluo-4 Ca^2+-assay (Corning, Falcon, 353219) or in white Opaque 96-well Microplate (PerkinElmer Life, 6005680) for ELISA. 100 μL containing 20,000 cells were added to each well and incubated 48 hours before assays. All plates were coated with poly-D-lysine.
# Compound 1a (1a) was kindly provided by H. Lundbeck A/S, Denmark. […]
# (§2) The Ca^2+ measurements were preformed using the Fluo-4 NW Calcium Assay Kit (Invitrogen, Molecular Probes, F36206) as previously described. […] Intracellular calcium changes were recorded as indicated on either a NOVOstar (BMG Labtech) at 37 °C with an excitation filter of 485 nm and an emission filters 520 nm or a FlexStation 3 Benchtop Multi-Mode Microplate Reader (Molecular Devices) at 37 °C with an excitation wavelength of 485 nm and emission of 525 nm.
# (§3) All pharmacological data have been analyzed by using Prism 6.0 (GraphPad Software Inc., San Diego). […] Changes in potency (pEC50) and span of myc-GPR139(WT) in comparison to untagged GPR139(WT) was statistically analyzed with a paired t-test and significance was accepted at p < 0.05. […]
# GPR139 E105Q3x29 = target: T2, GPR139 E105Q3x29 (Homo sapiens, UniProt Q6DWJ6, E105Q); experiment: Fluo-4 Ca2+-assay, GPR139 mutant E105Q
# T2 construct: mGluR5 signal peptide (N); expressed in transfected cells; host or cells: HEK293
# T2 sequence (Q6DWJ6 2-353 E105Q limits assumed): T1 sequence (Q6DWJ6 2-353 H187A limits assumed) with E104Q, A186H
# Excerpt: as §1, with “Mutagenesis was designed in Serial Cloner 2.6 (© Franck Perez [SerialBasics]) and carried out by GenScript (USA). All mutated residues are illustrated in Supplementary Fig. 1b. An untagged GPR139(WT) in pEGFP-N1 was also generated to ensure that the c-myc-tag had no influence on GPR139(WT) function.” left out
# as §2, §3
# GPR139 H251A6x58 = target: T3, GPR139 H251A6x58 (Homo sapiens, UniProt Q6DWJ6, H251A); experiment: Fluo-4 Ca2+-assay, GPR139 mutant H251A
# T3 construct: mGluR5 signal peptide (N); expressed in transfected cells; host or cells: HEK293
# T3 sequence (Q6DWJ6 2-353 H251A limits assumed): T1 sequence (Q6DWJ6 2-353 H187A limits assumed) with A186H, H250A
# Excerpt: as §1, with “Mutagenesis was designed in Serial Cloner 2.6 (© Franck Perez [SerialBasics]) and carried out by GenScript (USA). All mutated residues are illustrated in Supplementary Fig. 1b. An untagged GPR139(WT) in pEGFP-N1 was also generated to ensure that the c-myc-tag had no influence on GPR139(WT) function.” left out
# as §2, §3
Emax (GPR139 H187A^5×43) [%],EC50 (GPR139 H187A^5×43) [nM],"Emax at 8 µM (GPR139 H187A^5×43; H187A, at 8 μM, normalized to buffer (0%) and 8 μM 1a (100%) on WT) [%]",EC50 (GPR139 E105Q3x29; E105Q mutant) [nM],"Emax (GPR139 E105Q3x29; E105Q, normalized to buffer (0%) and 8 µM 1a (100%)) [%]",EC50 (GPR139 H251A6x58; H251A mutant) [nM],"Emax (GPR139 H251A6x58; H251A, normalized to buffer (0%) and 8 µM 1a (100%)) [%]",SMILES
60 ± 9,6610,–,–,–,–,–,C[C@@H](NC(=O)CNC(=O)c1cccc(Cl)c1)c1ccccc1 (racemic) [Compound 7c]
–,> 7940,35 ± 5,145,177 ± 36,813,84 ± 11,COc1cc(OC)cc(C(=O)NNC(=O)Nc2cccc3ccccc23)c1 [Compound 1a]
